The text below walks through data of EP4813403A1, “USE OF GLP-1R/GIPR DOUBLE-TARGET AGONIST IN PREPARING ANIMAL DRUG” (Hangzhou Zhongmeihuadong Pharmaceutical Co., Ltd., priority 2023, dated 2025).

Data set [1] can be described thus: Pharmacokinetics in cynomolgus monkeys. To be noted: cynomolgus monkey, in vivo. The protocol: After subcutaneous or intravenous administration to cynomolgus monkeys, plasma was collected and the drug concentration in plasma was determined to illustrate the in vivo pharmacokinetic properties of the compound according to the present invention. […] 70.0 µL of thawed plasma sample was taken. 70 µL of acetonitrile (containing 1 ng/ml of the internal standard) was added to precipitate protein. […] The mixture was vortexed for 5 minutes. 10 µL of the mixture solution was sampled and injected into the LC-MS/MS to determine the drug concentration in plasma. […] Table 9 Average Pharmacokinetic Parameters after Single Subcutaneous Administration to Cynomolgus Monkeys

Another data set concerns db/db mice. The data set is described as follows: Pharmacodynamic effects in db/db mice, single subcutaneous administration (blood glucose). Format: in vivo. To be noted: single s.c. 10 nmol/kg. The method, then: In this study, 8-9 week old male db/db mice were used. The db/db mice were placed in an individual ventilated cage (IVC) facility with a controlled temperature (20-26°C) and humidity (40-70%) and a controlled 12h:12 h light-dark cycle. The mice can receive food and water ad libitum. Blood was sampled at the tail tip, and the random base blood glucose was measured by a Roche blood glucose meter. The mice were randomly divided into groups according to the random initial fasting blood glucose and initial body weight (n=6/group), and each group had similar body weight and blood glucose.
After a single subcutaneous administration, the random base blood glucoses were recorded at the set time point (0 to 120 hours, the recording of the random base blood glucose was stopped until there was no difference between the random base blood glucose of the compound and that of the vehicle group), and the daily body weight and food intake were also recorded. The data results were statistically analyzed using GraphPad Prism8, and the statistical differences among the groups were analyzed following a T-Test. Significant differences were identified at p<0.05.
Hypoglycemic Duration: the longest time during which the random base blood glucose of the compound has a significant difference (p<0.05) vs. the vehicle group. Table 13. Hypoglycemic Duration of the Compounds

The target of the next data set is human GLP-1R (Homo sapiens, UniProt P43220). The data set is described as follows: In vitro binding activity to human GLP-1 receptor ([125I]GLP-1 displacement, crude cell membranes). Also on record: expressed in transfected cells. To be noted: ratio of the Ki value of the endogenous ligand to the Ki value of the test compound; larger ratio = stronger binding. The method, then: 89 µL of membrane dissolved in binding buffer (50 mM Hepes, pH 7.4, 5 mM MgCl2 , 5 mM EDTA, 0.005% TWEEN, 0.005% HSA) was transferred to a 96-well test plate (5 µg/well). The compound was serially diluted in DMSO, and then, 1 µL of the diluted compound or 100% DMSO was added to the test plate containing the membrane solution. 10 µL of [^125I] […] The test plate was left at room temperature for 90 minutes. The membrane complexes were harvested into a GF/B plate pre-coated with 0.5% PEI by using a Cell Harvester, and washed for 3 times with 500 µL of pre-cooled elution buffer (50 mM Hepes, pH 7.4, 500 mM NaCl) at 4°C. After drying at 37°C for 2 hours, 50 µL of scintillation fluid was added to each well. The plate was read with a MicroBeta2 scintillation counter after sealing and settling for at least 1 hour so as to determine the membrane bound radioligand level.
The IC50 concentration was converted to Ki (Ki was the inhibition constant) using the Cheng-Prusoff equation.

A short description of data set [2]: Pharmacokinetics in C57 mice. To be noted: in vivo. The method, then:
After subcutaneous or intravenous administration to C57 mice, plasma was collected and the drug concentration in plasma was determined to illustrate the in vivo pharmacokinetic properties of the compound according to the present invention. […] 20.0 µL of thawed plasma sample was taken. 20 µL of 50% aqueous methanol solution (containing 100 ng mL^-1 Tolbutamide) and 60 µL of acetonitrile were added sequentially to precipitate protein. The mixture was vortexed for 5 minutes, and centrifuged at 4815 rpm for 8 minutes. 50.0 µL of the supernatant was taken, into which 50.0 µL of 0.5% aqueous formic acid solution was added. The mixture was vortexed for 5 minutes. 50 µL of the mixture solution was sampled and injected into the LC-MS/MS to determine the drug concentration in plasma. Based on the drug concentration in plasma of the compounds in C57 mice, the pharmacokinetic parameters were calculated by applying the software Winnolin 8.3 in a non-compartmental model, and the results were shown in Table 7 and Table 8 below. Table 7 Average Pharmacokinetic Parameters after Single Subcutaneous Administration to Mice

Setting [3] is: Group 2, longest time with p<0.05 vs. vehicle.
Where [4] appears, read: sc, cynomolgus monkeys, single subcutaneous administration, 25 nmol/kg.
Where [5] appears, read: cynomolgus monkeys, single intravenous administration, 12.5 nmol/kg.

human GLP-1R, sequence (P43220 24-463): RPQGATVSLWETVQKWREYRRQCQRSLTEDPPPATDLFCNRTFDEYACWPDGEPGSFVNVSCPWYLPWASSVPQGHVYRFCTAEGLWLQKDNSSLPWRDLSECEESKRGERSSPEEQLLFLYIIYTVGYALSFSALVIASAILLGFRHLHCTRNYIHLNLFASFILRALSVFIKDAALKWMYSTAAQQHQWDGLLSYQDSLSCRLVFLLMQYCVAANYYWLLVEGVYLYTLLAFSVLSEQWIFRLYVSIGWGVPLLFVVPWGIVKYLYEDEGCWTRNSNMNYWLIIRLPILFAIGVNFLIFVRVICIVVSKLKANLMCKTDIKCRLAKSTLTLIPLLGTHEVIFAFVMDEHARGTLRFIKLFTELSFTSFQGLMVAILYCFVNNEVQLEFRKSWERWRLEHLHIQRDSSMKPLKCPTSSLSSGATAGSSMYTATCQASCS

The Tmax is the time from dosing to the highest level. Usually AUC(0-t) stands for exposure summed from dosing to a finite time, without extrapolation to infinity. In general, MRT refers to the average time that molecules of a dose stay in the body. For orientation: Cmax means the highest concentration seen after dosing. `CC[C@H](C)[C@H](NC(=O)C(C)(C)NC(=O)[C@H](Cc1ccc(O)cc1)NC(=O)[C@H](CC(=O)O)NC(=O)[C@H](CO)NC(=O)[C@@H](NC(=O)C(C)(Cc1ccccc1)NC(=O)[C@@H](NC(=O)CNC(=O)[C@H](CCC(=O)O)NC(=O)C(C)(C)NC(=O)[C@@H](N)Cc1ccc(O)cc1)[C@@H](C)O)[C@@H](C)O)C(=O)NC(C)(C)C(=O)N[C@@H](CC(C)C)C(=O)N[C@@H](CC(=O)O)C(=O)N[C@@H](CCCCN)C(=O)N[C@@H](CCC(N)=O)C(=O)N[C@@H](C)C(=O)N[C@@H](CCC(N)=O)C(=O)N[C@@H](C)C(=O)N[C@@H](CCC(=O)O)C(=O)N[C@@H](Cc1ccccc1)C(=O)N[C@H](C(=O)N[C@@H](CCCCNC(=O)COCCOCCNC(=O)COCCOCCNC(=O)CC[C@H](NC(=O)CCCCCCCCCCCCCCCCCCCCC(=O)O)C(=O)O)C(=O)N[C@@H](Cc1c[nH]c2ccccc12)C(=O)N[C@@H](CC(C)C)C(=O)N[C@@H](CC(C)C)C(=O)N[C@@H](CCCCN)C(=O)NCC(=O)NCC(=O)N1CCC[C@H]1C(=O)N[C@@H](CO)C(=O)N[C@@H](CO)C(=O)NCC(=O)N[C@@H](C)C(=O)N1CCC[C@H]1C(=O)N1CCC[C@H]1C(=O)N1CCC[C@H]1C(=O)N[C@@H](CO)C(=O)N[C@@H](CCCCN)C(N)=O)C(C)C` (stereo partly drawn) [Compound P014]: in data set [1] (sc), the Tmax worked out at 16 ± 6.93 h and the half-life is 2.2 ± 0.269 days. Besides, in the data set with db/db mice, the “inhibition of the blood glucose AUC, times of that of P001” value amounted to 2.6 times and the “inhibition of the blood glucose AUC, times of that of Tirzepatide” value worked out at 1.7 times. Also, the “Hypoglycemic Duration” value in the data set on db/db mice (Group 1, longest time with p<0.05 vs. vehicle) is 104 h. The “GLP-1R Ki ratio” value at human GLP-1R worked out at 0.37. In data set [2] (C57, mouse, iv), this compound showed an AUC(0-inf) of 18200 ng·h/mL, an AUC(0-t) of 17500 ng·h/mL, a C0 of 1940 ng/mL and a half-life of 1030 min. Moreover, the MRT in data set [2] (C57, mouse, iv, MRT(0-t)) amounted to 15.7 h. For the same compound, in data set [2] (C57, mouse, iv, MRT(0-∞)), the MRT turned out to be 19.2 h. Besides, in data set [2] (C57, mouse, sc), the AUC(0-inf) worked out at 30200 ng·h/mL, the AUC(0-t) stood at 27300 ng·h/mL, the Cmax turned out to be 852 ng/mL and the Tmax was 6 h. Besides, in data set [2] (C57, mouse, sc), the half-life is 1220 min. The same compound returned an MRT in data set [2] (C57, mouse, sc, MRT(0-t)) of 22.9 h. The compound further displayed a mean residence time (MRT) in data set [2] (C57, mouse, sc, MRT(0-∞)) of 30.3 h.

Take `CC[C@H](C)[C@H](NC(=O)C(C)(C)NC(=O)[C@H](Cc1ccc(O)cc1)NC(=O)[C@H](CC(=O)O)NC(=O)[C@H](CO)NC(=O)[C@@H](NC(=O)C(C)(Cc1ccccc1)NC(=O)[C@@H](NC(=O)CNC(=O)[C@H](CCC(=O)O)NC(=O)C(C)(C)NC(=O)[C@@H](N)Cc1ccc(O)cc1)[C@@H](C)O)[C@@H](C)O)C(=O)NC(C)(C)C(=O)N[C@@H](CC(C)C)C(=O)N[C@@H](CC(=O)O)C(=O)N[C@@H](CCCCN)C(=O)N[C@@H](CCC(N)=O)C(=O)N[C@@H](C)C(=O)N[C@@H](CCC(N)=O)C(=O)N[C@@H](C)C(=O)N[C@@H](CCC(=O)O)C(=O)N[C@@H](Cc1ccccc1)C(=O)N[C@H](C(=O)N[C@@H](CCCCN)C(=O)N[C@@H](Cc1c[nH]c2ccccc12)C(=O)N[C@@H](CC(C)C)C(=O)N[C@@H](CC(C)C)C(=O)N[C@@H](CCCCNC(=O)COCCOCCNC(=O)COCCOCCNC(=O)CC[C@H](NC(=O)CCCCCCCCCCCCCCCCCCCCC(=O)O)C(=O)O)C(=O)NCC(=O)NCC(=O)N1CCC[C@H]1C(=O)N[C@@H](CO)C(=O)N[C@@H](CO)C(=O)NCC(=O)N[C@@H](C)C(=O)N1CCC[C@H]1C(=O)N1CCC[C@H]1C(=O)N1CCC[C@H]1C(=O)N[C@@H](CO)C(=O)N[C@@H](CCCCN)C(N)=O)C(C)C` (stereo partly drawn) [Compound P017]: in data set [1] (sc), the Tmax was 48 ± 24 h and the half-life is 1.85 ± 0.2 days. In the data set with db/db mice (setting [3]), the “Hypoglycemic Duration” value came to 72 h. Moreover, the “GLP-1R Ki ratio” value at human GLP-1R amounted to 0.56.

As to `CC[C@H](C)[C@H](NC(=O)C(C)(C)NC(=O)[C@H](Cc1ccc(O)cc1)NC(=O)[C@H](CC(=O)O)NC(=O)[C@H](CO)NC(=O)[C@@H](NC(=O)C(C)(Cc1ccccc1)NC(=O)[C@@H](NC(=O)CNC(=O)[C@H](CCC(=O)O)NC(=O)C(C)(C)NC(=O)[C@@H](N)Cc1ccc(O)cc1)[C@@H](C)O)[C@@H](C)O)C(=O)NC(C)(C)C(=O)N[C@@H](CC(C)C)C(=O)N[C@@H](CC(=O)O)C(=O)N[C@@H](CCCCN)C(=O)N[C@@H](CCC(N)=O)C(=O)N[C@@H](C)C(=O)N[C@@H](CCC(N)=O)C(=O)N[C@@H](C)C(=O)N[C@@H](CCC(=O)O)C(=O)N[C@@H](Cc1ccccc1)C(=O)N[C@H](C(=O)N[C@@H](CCCCNC(=O)COCCOCCNC(=O)COCCOCCNC(=O)COCCOCCNC(=O)CC[C@H](NC(=O)CCCCCCCCCCCCCCCCCCCCC(=O)O)C(=O)O)C(=O)N[C@@H](Cc1c[nH]c2ccccc12)C(=O)N[C@@H](CC(C)C)C(=O)N[C@@H](CC(C)C)C(=O)N[C@@H](CCCCN)C(=O)NCC(=O)NCC(=O)N1CCC[C@H]1C(=O)N[C@@H](CO)C(=O)N[C@@H](CO)C(=O)NCC(=O)N[C@@H](C)C(=O)N1CCC[C@H]1C(=O)N1CCC[C@H]1C(=O)N1CCC[C@H]1C(=O)N[C@@H](CO)C(=O)N[C@@H](CCCCN)C(N)=O)C(C)C` (stereo partly drawn) [Compound P016], the AUC(0-inf) amounted to 323 ± 44.6 µg·h/mL in data set [1] (setting [4]); 80 ± 21.1 µg·h/mL in data set [1] (setting [5]); 18200 ng·h/mL in data set [2] (mouse, sc, C57 mice, single subcutaneous administration, read-out: AUC(0-∞)); 12100 ng·h/mL in data set [2] (mouse, C57 mice, single intravenous administration, read-out: AUC(0-∞)). In addition, the AUC(0-t) in data set [1] (setting [4]) came to 319 ± 41.5 µg·h/mL; in data set [1] (setting [5]), 78.2 ± 20.3 µg·h/mL; in data set [2] (mouse, sc, C57 mice, single subcutaneous administration, read-out: AUC(0-t)) it was 15900 ng·h/mL; in data set [2] (mouse, C57 mice, single intravenous administration, read-out: AUC(0-t)) it was 11100 ng·h/mL. In addition, the Cmax in data set [1] (setting [4]) turned out to be 3000 ± 481 ng/mL; in data set [2] (mouse, sc, C57 mice, single subcutaneous administration, read-out: Cmax) it was 434 ng/mL. The half-life in data set [1] (sc, cynomolgus monkeys, single subcutaneous administration, 25 nmol/kg, read-out: T1/2 (converted)) is 2.52 ± 0.533 days; in data set [1] (cynomolgus monkeys, single intravenous administration, 12.5 nmol/kg, read-out: T1/2 (converted)), 2.49 ± 0.373 days; in data set [2] (mouse, sc, C57 mice, single subcutaneous administration, read-out: T1/2 (converted)) it was 1380 min; in data set [2] (mouse, C57 mice, single intravenous administration, read-out: T1/2 (converted)) it was 1210 min. Further, the Tmax in data set [1] (sc, cynomolgus monkeys, single subcutaneous administration, 25 nmol/kg, read-out: Tmax) turned out to be 40 ± 13.9 h; in data set [2] (mouse, sc, C57 mice, single subcutaneous administration, read-out: Tmax) it was 8 h. Also, the C0 in data set [1] (setting [5]) worked out at 1700 ± 335 ng/mL; in data set [2] (mouse, C57 mice, single intravenous administration, read-out: C0), 1150 ng/mL. The “inhibition of the blood glucose AUC, times of that of Tirzepatide” value with db/db mice came to 2.2 times. In the data set on db/db mice (setting [3]), the “Hypoglycemic Duration” value is recorded as 104 h. The “GLP-1R Ki ratio” value at human GLP-1R is 0.63. In addition, the MRT turned out to be 19.9 h in data set [2] (C57, mouse, iv, MRT(0-t)); 26.6 h in data set [2] (C57, mouse, iv, MRT(0-∞)); 26 h in data set [2] (C57, mouse, sc, MRT(0-t)); 35.9 h in data set [2] (C57, mouse, sc, MRT(0-∞)).
